Experimental data from patent US20100125085A1, “PYRIDOINDOLE MODULATORS OF NMDA RECEPTOR AND ACETYLCHOLINESTERASE” (AUSPEX PHARMACEUTICALS, INC., priority 2008, published 2010).

Experiments:
[1] = cited from earlier work
[2] = sites of metabolism of dimebolin in humans; type: in vivo; settings: discoveries made in our laboratory and literature

Cc1ccc2c(c1)c1c(n2CCc2ccc(C)nc2)CCN(C)C1 [dimebolin, 2,8-dimethyl-5-[2-(6-methyl-pyridin-3-yl)-ethyl]-2,3,4,5-tetrahydro-1H-pyrido[4,3-b]indole]
common adverse events ([1]; >5% of patients and at least twice the incidence of placebo): dry mouth, depressed mood/depression, and hyperhidrosis | patients reporting at least 1 serious adverse effect ([1]; double-blind study, dimebolin group): 3% | patients reporting at least 1 adverse effect ([1]; double-blind study, patients taking dimebolin): 79% | sites of metabolism [2]: metabolized in humans at the pyridyl methyl group, the tolyl methyl group, the ethylene linker, and the N-methyl group
